Key:
MPanc96-luc cells = experiment: CAM cancer implant model, MPanc96; format: in vivo, chick embryo; conditions: 1.0 ug/CAM
Method: The CAM cancer implant model was used in conjunction with the present invention to study the effect of heparin derivatives (S-NACH versus tinzaparin) along with gemcitabine at 1.0 μg/CAM on tumor angiogenesis and tumor growth. MPanc96-luc cells in exponential growth phase were harvested as described above. One×10^6 cells in 30 μl of medium were mixed with an equal volume of Matrigel and implanted in the chick Chorioallantoic membrane (CAM) model of 7-day old chick eggs. The effect of these treatments was determined after 8 days of implantation. Results are presented as a mean tumor weight (g) per treatment group and tumor hemoglobin (mg/dl)±SEM, n=10 per group. For the Matrigel portions of the models, tumor angiogenesis is evaluated with tumor weight analysis and Drabkin's Assay for hemoglobin concentration (angiogenesis index). PBS was used as a negative control while breast cancer cells were used as a positive control and to initiate tumorigenesis. The tumor cells were MCF-7/DXR (human breast adenocarcinoma), and 1-2 million cells per CAM were used. […] By re-weighing the tubes with the tumor inside, the weight of the tumor itself could be recorded. […] Specimens were centrifuged, and the hemoglobin content was measured using Drabkin's reagent (Sigma, St Louis, Mo.), run in duplicate using the supernatant. […]

[1] = system: MCF7 DOX resistant cancer cells; experiment: Orthotopic implant of MCF7 DOX resistant cells in nude mice; format: in vivo; conditions: 10 mg/Kg, SC daily for 15 days, vs control
Method: Immune-deficient female NCr nude homozygous mice aged 5-6 weeks weighing 18-20 g were purchased from Harlan Laboratories (Indianapolis, Ind.). All animal studies were conducted in accordance with the institutional guidelines for humane animal treatment. Mice were maintained under specific pathogen-free conditions and housed under controlled conditions of temperature (20-24° C.), humidity (60-70%), and 12 h light/dark cycle with ad libitum access to water and food. Mice were allowed to acclimatize for 5 days prior to the start of study.
Orthotopic implant of 0.5 million of MCF7 DOX resistant cancer cells in nude mice result in progressive rapid tumor growth approaching 150 mm3 after 5 days of implant.

[2] = Bleeding time (tail transection); format: in vivo, mice; conditions: dose not stated; vs control
Method: Bleeding time in mice was tested during the period of receiving test compounds. Mice were anesthetized with isoflurane inhalation. By using a scalpel, 0.5 cm of the distal end of the tail was transected, and the remaining length of tail was immersed immediately into a 37° C. solution of saline. Bleeding time was measured from the time of tail transection until visible bleeding could no longer be detected. The experiment was repeated 3 times with different groups and concentrations.

Mpanc96-luc cancer cells = experiment: Liver metastasis and recurrence after excision of pancreatic cancer; format: in vivo; conditions: experiment and dose not stated at the place
From the text: Different groups of mice received either saline (control), LMWH, SNACH or S-SNACH, followed by injection of luciferase transfected pancreatic cancer cells into the mouse spleen. The treatment continued daily for two weeks. IVIS imaging was done once a week to measure the metastatic load to various organs. The tumor burden measurements were based on the bioluminescence signal intensity of the pancreatic cancer cells. The second experiment was intended to study the effect of the compounds (LMWH, SNACH, and S-SNACH) on metastasis after tumor excision surgery. Pancreatic Mpanc96 cells were injected into the tail of the pancreas and one week later animals were randomized into different groups. One group received saline and another group received LMWH, SNACH, and S-SNACH at 30 minutes before resection of the pancreatic tumor, followed by daily treatment for 3 weeks. Tumor metastasis was evaluated by IVIS imagining. A bleeding time experiment was done to evaluate the relative effect on bleeding time. […] Tumor luminescent signal intensity, weight, and histopathology were assessed at the termination of the study.
Mice were randomly distributed into control and treatment groups, averaging 10 mice in each group. […] The spread of cancer cells was monitored using IVIS imaging once per week, and at the end of the 3 week treatment period the mice were euthanized.

[3] = system: pancreatic (Panc-1) tumor; experiment: CAM tumor implant model, Panc-1; format: in vivo; conditions: 10 ug/CAM

tinzaparin
tumor growth or tumor angiogenesis (MPanc96-luc cells): maximally inhibited | tumor growth progression [1]: halting tumor growth progression | bleeding time [2]: extended the bleeding significantly | tumor recurrence after surgical excision (Mpanc96-luc cancer cells): not | tumor growth or tumor angiogenesis [3]: inhibited

From patent US9572831B2, “Composition and method for sulfated non-anticoagulant low molecular weight heparins in cancer and tumor metastasis” (priority 2013, dated 2017)
